Experimental data taken from ChEMBL document CHEMBL1201862, “PubChem BioAssay data set” (2004).
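Test compounds were applied to cells in 96-well plates for 48 hours at 5 doses. GI50: concentration for 50% inhibition of growth.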 Calls of active or inactive are those of the source. Rule as the data show it: active = GI50 up to about 1.1 µM and inactive = higher.

Columns and labels:
Experiment in all cases: DTP human tumour cell line panel, 48 h
[1] = system: A549
[2] = system: ACHN
[3] = system: COLO 205
[4] = system: HOP-92
[5] = system: KM12
[6] = system: M14
[7] = system: MOLT-4
[8] = system: Malme-3M
[9] = system: NCI-H226
[10] = system: OVCAR-5
[11] = system: OVCAR-8
[12] = system: SF-268
[13] = system: SF-539
[14] = system: SK-MEL-28
[15] = system: SK-MEL-2
[16] = system: SN12C
[17] = system: U-251
[18] = system: UACC-257
[19] = system: RPMI-8226

Measured: GI50

COc1ccc(NC(=O)C(=O)Cc2nc3ccc(C(=O)c4ccccc4)cc3nc2O)c([N+](=O)[O-])c1
inactive: [1] 47.1 µM | [2] 43.6 µM | [3] 16 µM | [4] 10.8 µM | [5] 6.93 µM | [6] 35.6 µM | [7] 17.6 µM | [8] 53.6 µM | [9] 11.5 µM | [10] > 100 µM | [11] 18.8 µM | [12] 34.8 µM | [13] 33 µM | [14] 25.8 µM | [15] 55.1 µM | [16] 35.7 µM | [17] 41.9 µM | [18] 22.6 µM

Cn1c(=O)c2c(nc3n(CC(O)CCl)c(=O)ccn23)n(C)c1=O (centres undefined)
inactive: [1] 64 µM | [2] 15.4 µM | [3] 36.8 µM | [4] 45.9 µM | [5] 19.9 µM | [6] 52.7 µM | [7] 6.17 µM | [9] 22.6 µM | [10] > 100 µM | [11] 18.7 µM | [19] 19.5 µM | [12] 20.5 µM | [13] 46.7 µM | [14] 66.7 µM | [15] > 100 µM | [16] 18.3 µM | [17] 44 µM | [18] 76.6 µM

CC1(C)COC(c2cccc(C(O)c3ccc(Cl)cc3)c2)=N1 (centres undefined)
inactive: [1] > 10 µM | [2] 33.7 µM | [3] 18 µM | [4] 24.9 µM | [5] 43.7 µM | [6] 19.9 µM | [7] 12.1 µM | [8] 25.1 µM | [9] 14.8 µM | [10] 17.9 µM | [11] 16.1 µM | [19] 27.2 µM | [12] 31.1 µM | [13] 19.4 µM | [14] 29.2 µM | [15] 24.2 µM | [16] 26.9 µM | [17] 22.6 µM

O=C1NC(=O)C23C(=O)NC(=O)C12C1C=CC3CC1 (centres undefined)
inactive: [1] > 10 µM | [2] > 10 µM | [3] > 10 µM | [4] > 10 µM | [5] > 10 µM | [6] > 10 µM | [7] > 10 µM | [8] > 10 µM | [9] > 10 µM | [11] > 10 µM | [19] > 10 µM | [12] > 10 µM | [13] > 10 µM | [14] > 10 µM | [15] > 10 µM | [16] > 10 µM | [17] > 10 µM | [18] > 10 µM

CCOc1ccc2nc(NC(=O)C(=O)C(c3cnc4ccccc4n3)[N+](=O)[O-])sc2c1 (centres undefined)
inactive: [1] > 100 µM | [2] 43.8 µM | [4] > 100 µM | [5] > 100 µM | [6] > 100 µM | [7] 53.1 µM | [8] > 100 µM | [9] > 100 µM | [10] > 100 µM | [11] 53.5 µM | [19] 61.5 µM | [12] > 100 µM | [13] > 100 µM | [15] > 100 µM | [16] > 100 µM | [18] > 100 µM

Nc1ccc2c(c1)C(=O)c1c(F)cccc1-2
inactive: [1] 96.6 µM | [2] 34.1 µM | [3] 44.3 µM | [4] 15.5 µM | [5] 40.5 µM | [6] 50.4 µM | [8] 38.4 µM | [9] 27.7 µM | [11] 43.1 µM | [19] 20.4 µM | [12] 17.9 µM | [13] 24.5 µM | [14] 34.2 µM | [15] 81.7 µM | [16] 39.1 µM | [17] 53.1 µM | [18] > 100 µM

Cc1ccc(O)c(-c2cc(-c3ccccc3)nc(/N=C\c3ccccc3)n2)c1
inactive: [1] 23.1 µM | [2] 13.1 µM | [4] 43.7 µM | [5] 17.5 µM | [6] > 100 µM | [7] 18.2 µM | [8] > 100 µM | [9] 30.3 µM | [10] > 100 µM | [11] 20.4 µM | [12] 21.9 µM | [13] 29.6 µM | [14] > 100 µM | [15] 25.8 µM | [16] 42.9 µM | [17] 20.9 µM | [18] > 100 µM

Cc1cc2nc3[nH]c4c(Cl)cc(Cl)cc4c3nc2cc1C
inactive: [1] > 100 µM | [2] > 100 µM | [3] > 100 µM | [4] > 100 µM | [5] > 100 µM | [6] > 100 µM | [7] 74 µM | [8] > 100 µM | [9] > 100 µM | [10] > 100 µM | [11] > 100 µM | [19] > 100 µM | [12] > 100 µM | [13] 36.5 µM | [14] > 100 µM | [15] > 100 µM | [16] > 100 µM | [17] > 100 µM

O=C(CSc1nnc(SCC(=O)NN=C2CCCCC2)s1)NN=C1CCCCC1
inactive: [1] > 100 µM | [2] > 100 µM | [3] > 100 µM | [4] > 100 µM | [5] > 100 µM | [6] > 100 µM | [7] > 100 µM | [8] > 100 µM | [9] > 100 µM | [10] > 100 µM | [11] > 100 µM | [19] > 100 µM | [12] > 100 µM | [13] > 100 µM | [14] > 100 µM | [16] > 100 µM | [17] > 100 µM | [18] > 100 µM

CC(=N\N=C\c1ccccn1)/C(C)=N/N=C(C)/C(C)=N/N=C/c1ccccn1
inactive: [1] > 100 µM | [2] > 100 µM | [3] > 100 µM | [4] > 100 µM | [5] > 100 µM | [6] > 100 µM | [8] > 100 µM | [9] > 100 µM | [10] > 100 µM | [11] > 100 µM | [19] > 100 µM | [12] > 100 µM | [13] > 100 µM | [14] > 100 µM | [15] > 100 µM | [16] > 100 µM | [17] > 100 µM | [18] > 100 µM

Fc1ccccc1-c1cc(S)c2cc3c(cc2n1)OCO3
inactive: [1] 5.52 µM | [2] 38 µM | [3] 28.6 µM | [4] > 45.7 µM | [5] 4.91 µM | [6] 6.61 µM | [7] 9.62 µM | [8] 11.7 µM | [9] 19.2 µM | [10] > 51.3 µM | [11] 17.8 µM | [12] > 44.8 µM | [13] 7.18 µM | [14] 27.9 µM | [15] 7.69 µM | [16] 34.2 µM | [17] 4.33 µM | [18] 8.47 µM
